Experimental data reported in ChEMBL document CHEMBL5344474, “Molecular editing of NSC-666719 enabling discovery of benzodithiazinedioxide-guanidines as anticancer agents” (RSC Med Chem, 2024).

Legend:
[1] = Selectivity index, ratio of IC50 for HEK293 cells to IC50 for human HCT-116 cells; settings: HEK293 cells versus HCT-116 cells
MCF7 = experiment: Antiproliferative activity against human MCF7 cells incubated for 72 hrs by MTT assay; settings: MCF7, 72 h
[2] = Selectivity index, ratio of IC50 for HEK293 cells to IC50 for human MDA-MB-231 cells; settings: HEK293 cells versus MDA-MB-231 cells
[3] = Selectivity index, ratio of IC50 for HEK293 cells to IC50 for human MCF7 cells; settings: HEK293 cells versus MCF7 cells
MDA-MB-231 = experiment: Antiproliferative activity against human MDA-MB-231 cells incubated for 72 hrs by MTT assay; settings: MDA-MB-231, 72 h
HCT-116 = experiment: Antiproliferative activity against human HCT-116 cells incubated for 72 hrs by MTT assay; settings: HCT-116, 72 h
SCC-9 = experiment: Antiproliferative activity against human SCC-9 cells incubated for 72 hrs by MTT assay; settings: SCC-9, 72 h
[4] = Cytotoxicity against HEK293 cells incubated for 72 hrs by MTT assay; settings: human

| IC50 (MCF7) [µM] | IC50 (MDA-MB-231) [µM] | IC50 (HCT-116) [µM] | Compound | selectivity ratio [1] | selectivity ratio [2] | selectivity ratio [3] | IC50 (SCC-9) [µM] | IC50 at 72 h [4] [µM] |
| --- | --- | --- | --- | --- | --- | --- | --- | --- |
| 3.8 | 5.8 | – | Cc1cc2c(cc1Cl)SC(/N=C(/N)Nc1ccc3ncccc3c1)=NS2(=O)=O | > 65 | > 65 | > 65 | – | – |
| 3.5 | 6.1 | – | COc1cc2nccc(N/C(N)=N\C3=NS(=O)(=O)c4cc(C)c(Cl)cc4S3)c2cc1OC | > 65 | > 65 | > 65 | – | – |
| 1 | 2.5 | 4 | Cc1cc2c(cc1Cl)SC(/N=C(/N)Nc1cnc3ccccn3c1=O)=NS2(=O)=O | > 65 | > 65 | > 65 | 0.9 | 66.5 |
| 7.8 | 8.6 | – | Cc1cc(S(=O)(=O)Nc2nc(Nc3cnc4ccccc4c3)n[nH]2)c(S)cc1Cl | > 65 | > 65 | > 65 | – | – |
| 7.5 | 8.6 | – | Cc1cc(S(=O)(=O)Nc2nc(Nc3cccc4ccccc34)n[nH]2)c(S)cc1Cl | > 65 | > 65 | > 65 | – | – |
| 7.5 | 8.6 | – | Cc1cc(S(=O)(=O)Nc2nc(Nc3ccc4cc(O)ccc4c3)n[nH]2)c(S)cc1Cl | > 65 | > 65 | > 65 | – | – |
| 8.4 | 9.2 | – | COc1cc2nccc(Nc3n[nH]c(NS(=O)(=O)c4cc(C)c(Cl)cc4S)n3)c2cc1OC | > 65 | > 65 | > 65 | – | – |
| 3.1 | 5.7 | – | Cc1cc2c(cc1Cl)SC(/N=C(/N)Nc1ccnc3ccccc13)=NS2(=O)=O | > 65 | > 65 | > 65 | – | – |
| 4 | 4.8 | – | Cc1cc(S(=O)(=O)Nc2nc(Nc3ccnc4cc(Cl)ccc34)n[nH]2)c(S)cc1Cl | > 65 | > 65 | > 65 | – | – |
| 7.4 | 8.4 | – | Cc1cc(S(=O)(=O)Nc2nc(Nc3ccc(Cl)cc3)n[nH]2)c(S)cc1Cl | – | – | – | – | – |
| 3 | 5.3 | – | Cc1cc2c(cc1Cl)SC(/N=C(/N)Nc1cncc3ccccc13)=NS2(=O)=O | > 65 | > 65 | > 65 | – | – |
| 6.3 | 7 | – | Cc1cc(S(=O)(=O)Nc2nnc(Nc3ccccc3)[nH]2)c(S)cc1Cl | > 65 | > 65 | > 65 | – | – |
| 1.8 | 2.6 | 3.8 | Cc1cc(S(=O)(=O)Nc2nc(Nc3cncc4ccccc34)n[nH]2)c(S)cc1Cl | > 65 | > 65 | > 65 | 2.1 | – |
| 2.8 | 3.2 | 4.1 | Cc1cc(S(=O)(=O)Nc2nc(NC(=O)c3ccc4ccccc4c3)n[nH]2)c(S)cc1Cl | > 65 | > 65 | > 65 | 2.6 | – |
| 2.4 | 4 | – | Cc1cc2c(cc1Cl)SC(/N=C(/N)NC(=O)c1ccc3ccccc3c1)=NS2(=O)=O | > 65 | > 65 | > 65 | – | – |
| 3.2 | 6.3 | – | COc1cccc2c(O)ccc(N/C(N)=N\C3=NS(=O)(=O)c4cc(C)c(Cl)cc4S3)c12 | > 65 | > 65 | > 65 | – | – |
| 2.3 | 3.8 | – | Cc1cc2c(cc1Cl)SC(/N=C(/N)Nc1ccc3ccccc3n1)=NS2(=O)=O | > 65 | > 65 | > 65 | – | – |
| 3.6 | 5.4 | – | Cc1cc2c(cc1Cl)SC(/N=C(/N)Nc1cccc3ncccc13)=NS2(=O)=O | > 65 | > 65 | > 65 | – | – |
| 7.2 | 8.6 | – | Cc1cc(S(=O)(=O)Nc2nc(Nc3cccc4ncccc34)n[nH]2)c(S)cc1Cl | > 65 | > 65 | > 65 | – | – |
| 3.5 | 5.8 | – | Cc1cc2c(cc1Cl)SC(/N=C(/N)Nc1ccc3ccccc3c1)=NS2(=O)=O | > 65 | > 65 | > 65 | – | – |
| 5.4 | 7.2 | – | Cc1cc2c(cc1Cl)SC(/N=C(/N)Nc1ccc3cnccc3c1)=NS2(=O)=O | > 65 | > 65 | > 65 | – | – |
| 3.1 | 3.9 | – | Cc1cc(S(=O)(=O)Nc2nc(Nc3ccc(Br)cc3)n[nH]2)c(S)cc1Cl | > 65 | > 65 | > 65 | – | – |

| IC50 (MCF7) [µM] | IC50 (MDA-MB-231) [µM] | IC50 (HCT-116) [µM] | Compound | selectivity ratio [1] | selectivity ratio [2] | selectivity ratio [3] | IC50 (SCC-9) [µM] | IC50 at 72 h [4] [µM] |
| --- | --- | --- | --- | --- | --- | --- | --- | --- |
| 1.3 | 2.6 | 3.2 | Cc1cc2c(cc1Cl)SC(/N=C(/N)Nc1cccc3cnccc13)=NS2(=O)=O | > 65 | > 65 | > 65 | 1.2 | 72.2 |
| 3.3 | 5.4 | – | COc1ccc(N/C(N)=N\C2=NS(=O)(=O)c3cc(C)c(Cl)cc3S2)cc1 | > 65 | > 65 | > 65 | – | – |
| 7.7 | 8.5 | – | COc1ccc2ccccc2c1Nc1n[nH]c(NS(=O)(=O)c2cc(C)c(Cl)cc2S)n1 | > 65 | > 65 | > 65 | – | – |
| 3.2 | 4.4 | – | Cc1cc2c(cc1Cl)SC(/N=C(/N)Nc1ccc3cc(O)ccc3c1)=NS2(=O)=O | > 65 | > 65 | > 65 | – | – |
| 6.5 | 7.7 | – | COc1ccc(Nc2n[nH]c(NS(=O)(=O)c3cc(C)c(Cl)cc3S)n2)c(OC)c1OC | > 65 | > 65 | > 65 | – | – |
| 2.9 | 5.2 | – | CC(=O)c1cn(C)c2ccc(N/C(N)=N\C3=NS(=O)(=O)c4cc(C)c(Cl)cc4S3)cc12 | > 65 | > 65 | > 65 | – | – |
| 5.5 | 6.6 | – | Cc1cc2c(cc1Cl)SC(/N=C(/N)Nc1ccc(Cl)cc1)=NS2(=O)=O | > 65 | > 65 | > 65 | – | – |
| 2.5 | 4.1 | – | Cc1cc2c(cc1Cl)SC(/N=C(/N)Nc1ccc3nccnc3c1)=NS2(=O)=O | > 65 | > 65 | > 65 | – | – |
| 3.6 | 5.6 | – | Cc1cc2c(cc1Cl)SC(/N=C(/N)Nc1cccc3cccnc13)=NS2(=O)=O | > 65 | > 65 | > 65 | – | – |
| 2.4 | 4.1 | – | COc1cc(N/C(N)=N\C2=NS(=O)(=O)c3cc(C)c(Cl)cc3S2)cc(OC)c1OC | > 65 | > 65 | > 65 | – | – |
| 4 | 5.8 | – | Cc1cc2c(cc1Cl)SC(/N=C(/N)Nc1ccc3c(ccc(=O)n3C)c1)=NS2(=O)=O | > 65 | > 65 | > 65 | – | – |
| 7.4 | 8.7 | – | Cc1cc(S(=O)(=O)Nc2nc(Nc3cccc4cnccc34)n[nH]2)c(S)cc1Cl | > 65 | > 65 | > 65 | – | – |
| 1.1 | 2.4 | 4.4 | Cc1cc2c(cc1Cl)SC(/N=C(/N)Nc1ccc(N3CCOCC3)cc1)=NS2(=O)=O | > 65 | > 65 | > 65 | 1.2 | 70.1 |
| 2.3 | 4.1 | – | Cc1cc2c(cc1Cl)SC(/N=C(/N)Nc1cnc3ccccc3c1)=NS2(=O)=O | > 65 | > 65 | > 65 | – | – |
| 7.6 | 8.2 | – | Cc1cc(S(=O)(=O)Nc2nc(Nc3ccc4cnccc4c3)n[nH]2)c(S)cc1Cl | > 65 | > 65 | > 65 | – | – |
| 7.1 | 8.2 | – | Cc1cc(S(=O)(=O)Nc2nc(Nc3ccc4ncccc4c3)n[nH]2)c(S)cc1Cl | > 65 | > 65 | > 65 | – | – |
| 8.2 | 8.8 | – | Cc1cc(S(=O)(=O)Nc2nc(Nc3cccc4cccnc34)n[nH]2)c(S)cc1Cl | > 65 | > 65 | > 65 | – | – |
| 7.8 | 8.5 | – | COc1ccc(Nc2n[nH]c(NS(=O)(=O)c3cc(C)c(Cl)cc3S)n2)cc1 | > 65 | > 65 | > 65 | – | – |
| 4.4 | 5.5 | 4.9 | Cc1cc(S(=O)(=O)Nc2nc(Nc3ccc4ccccc4c3)n[nH]2)c(S)cc1Cl | – | – | – | 4 | – |
| 3 | 4.3 | – | COc1ccc2ccccc2c1N/C(N)=N\C1=NS(=O)(=O)c2cc(C)c(Cl)cc2S1 | > 65 | > 65 | > 65 | – | – |
| 2.5 | 4 | – | COc1nc(N/C(N)=N\C2=NS(=O)(=O)c3cc(C)c(Cl)cc3S2)c2ccn(C)c2n1 | > 65 | > 65 | > 65 | – | – |
